Measurements taken from patent publication US20240368644A1, “METHODS TO PRODUCE THERAPEUTIC FORMULATIONS COMPRISING HYDROXYBUTIRATE AND HYDROXYVALERATE, THERAPEUTIC FORMULATIONS AND USES THEREOF” (PHB Industrial S.A., priority 2021, published 2024).

How the values were obtained:
[1] = Increase in circulating ketone level after administration of D-BHB, D-BHV and D-1,3BD in various ratios, subjects at rest; type: in vivo, human; settings: for Max change in mMol/L (increase in circulating ketone level): 10 g dose, three human subjects at rest, composition given as % D-BHB acid; for prolonged rise of blood ketone levels: based on measured plasma levels of FIG. 1
Source text: (§1) Examples include using a composition including D-BHB, D-BHV, and D-1,3BD in a subject at rest. The ketotic efficiency represents the net elevation of circulating ketones a ketone supplement affects over time in an individual. Ketotic efficiency may be represented as:
As illustrated by the examples of FIG. 1, these exemplary compositions can advantageously elevate circulating ketones by approximately two times greater than other known compositions. Such a composition can sustain ketonemia for longer than either D-BHB or D-1,3BD can when ingested alone by a subject of a given weight as shown by the 100% line (i.e., contains D-BHB, but not D-1,3BD) and the 0% line (i.e., contains only D-1,3BD, but not D-BHB).
As shown in the following table, the increase in circulating ketone level with a 10 g dose in three human subjects at rest was maximal at between 45-55% D-BHB in the tested compositions.

[2] = Ketotic efficiency (net elevation of circulating ketones over time per dose); type: in vivo, human; settings: person at rest, concentration of DBHB + DBHV in composition with D-1,3BD; for 1 hour ketotic efficiency: 1 hour post-administration; for 2 hours ketotic efficiency: 2 hours post-administration
Source text: as §1
where mMol/L is the concentration of circulating p-hydroxybutyrate in the blood, g is the total dose of the combined D-BHB, D-BHV, and D-1,3,BD in grams, kg is the mass of the individual in kilograms, and t is an increment of time in minutes.
The ketotic efficiency of the D-BHB, D-BHV, and D-1,3BD blend measured over of one hour in this exemplary study is 43% to 104% greater than the administration of pure (D)-1,3 butanediol or pure (D)-β-hydroxybutyric acid alone, respectively. While this example pertains to a fasted subject at rest, the relative utility of blended vs pure constituents has also been observed in fed and active subjects.
FIG. 2 represents the expected ketosis for a person at rest with a 0.13 g/kg dose of (D)-β-hydroxybutyric acid, (D)-β-hydroxyvaleric acid, and (D)-1,3 butanediol over time for the periods shown. […] Administration of examples in accordance with the present disclosure are expected to cause efficient, prolonged rises in circulating blood ketone levels in a manner that is unexpected based on the current literature. As shown in the following table, the highest efficiency at both 1 and 2 hours post-administration was obtained at 45% D-BHB+D-BHV (0.96:0.04) to 55% D-1,3BD and the lowest efficiency was observed when administering D-BHB or D-1,3BD alone.

[3] = test system: patients with glucose transporter 1 deficiency syndrome (GLUT1); settings: cited from earlier work

Structure (SMILES) | Max change in mMol/L (increase in circulating ketone level) [1] | prolonged rise of blood ketone levels [1] | 1 hour ketotic efficiency [2] | 2 hours ketotic efficiency [2] | decrease of paroxysmal non-epileptic manifestations [3]
CC(O)CCO (stereo not drawn) [0%, (D)-1,3 butanediol] | 0.8 mmol/L | does not cause a prolonged rise of blood ketone levels | 266 kg·mmol·min/g/L | 462 kg·mmol·min/g/L | 
CC(O)CC(=O)O (stereo not drawn) [100%, (D)-β-hydroxybutyric acid] | 0.9 mmol/L | A similar result | 335 kg·mmol·min/g/L | 566 kg·mmol·min/g/L | 
CCCCCCC(=O)OCC(COC(=O)CCCCCC)OC(=O)CCCCCC [triheptanoin, Triheptanoin] |  |  |  |  | 90%
